From US20090258046A1, “COMPOSITION, FORMULATIONS AND KIT FOR TREATMENT OF RESPIRATORY AND LUNG DISEASE WITH NON-GLUCOCORTICOID STEROIDS AND/OR UBIQUINONE AND A BRONCHODILATING AGENT” (priority 2001, published 2009)

Columns and labels:
[1] = test system: Intracellular adenosine in various Rat Tissues; assay: In vivo effect on tissue adenosine levels in rats (HPLC of 1,N6-ethenoadenosine); design: species or system Fischer 344 rats; settings: for Intracellular adenosine, Brain / Intracellular adenosine, Heart / Intracellular adenosine, Liver: mean ± SEM
Description: […] […] Hearts were removed from animals and flash frozen in liquid nitrogen with 10 seconds of death. Liver and lungs were removed en bloc and flash frozen with 30 seconds of death. Brain tissue was subsequently dissected.

HT-29 SF cells [2] = assay: Reversal of DHEA-mediated growth inhibition by medium supplements; format: cell-based, human; settings: 25 μM DHEA, 48 hour treatment; 2 μM MVA, 80 μM SQ, 15 μg/ml CH, RN 30 μM each, DN 20 μM each
Procedure: RN plus DN, or MVA plus CH plus RN, or medium that was not supplemented. All compounds were obtained from Sigma Chemical Co. (St. Louis, Mo.) Cholesterol was solubilized in ethanol immediately before use. […] In A, the medium was supplemented with 2 μM MVA, 80 μM SQ, 15 μg/ml CH, or MVA plus CH (MVA+CH) or was not supplemented (CON). […] RN plus DN (RN+DN); or MVA plus CH plus RN (MVA+CH+RN). […] Columns represent cell growth percentage of untreated controls; bars represent SEM. Increase in cell number in untreated controls was […]. Each data point represents quadruplicate dishes from four independent experiments. Statistical analysis was performed using Student's t test κ ρ<0.01; φ ρ<, 0.001; compared to treated controls.

HT-29 SF cells [3] = assay: Reversal of DHEA effect on cell cycle by medium supplements (flow cytometry); format: cell-based, human; settings: for prevention of DHEA-induced S phase depletion: 2 FM MVA, 15 Fg/ml CH, RN 30 FM
HT-29 SF cells [4] = assay: DHEA effect on cell growth (Coulter counter cell number)
Procedure: Cell cultures, HT-29 SF cells, which represent a subline of HY-29 cells (ATCC, Rockville, Md.) and are adapted for growth in completely defined serum-free PC-1 medium (Ventrex, Portland, Me.), were obtained. Stock cultures were maintained in this medium at 37° (in a humidified atmosphere containing 5% CO2).

HT-29 SF cells [5] = assay: DHEA effect on cell cycle distribution (flow cytometry, propidium iodide); format: cell-based, human
purified G6PDH = purified G6PDH (Homo sapiens, UniProt P11413); assay: Enzymatic assay of purified G6PDH (absorbance at 340 nm); settings: in vitro
purified G6PDH, sequence (P11413 whole entry): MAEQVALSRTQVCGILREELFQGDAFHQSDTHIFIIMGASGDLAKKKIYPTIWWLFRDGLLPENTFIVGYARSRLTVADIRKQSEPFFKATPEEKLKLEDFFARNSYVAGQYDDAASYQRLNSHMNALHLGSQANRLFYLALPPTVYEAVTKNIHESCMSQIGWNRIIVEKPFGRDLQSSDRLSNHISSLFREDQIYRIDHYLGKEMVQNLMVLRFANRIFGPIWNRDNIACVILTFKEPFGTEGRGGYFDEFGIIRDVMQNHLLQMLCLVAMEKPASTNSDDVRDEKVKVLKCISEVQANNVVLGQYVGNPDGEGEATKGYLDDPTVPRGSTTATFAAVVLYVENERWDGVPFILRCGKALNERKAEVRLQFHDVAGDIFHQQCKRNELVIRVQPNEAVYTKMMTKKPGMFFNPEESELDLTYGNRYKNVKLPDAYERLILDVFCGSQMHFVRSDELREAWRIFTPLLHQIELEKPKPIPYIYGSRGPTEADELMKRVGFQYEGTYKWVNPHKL
Procedure: All experiments were repeated 4 times.
A second group was added different concentrations of a CoQ of long side chain (in triplicate), and a third group received a CoQ of short side chain (in triplicate), both at various doses in the μM range.
The reaction was started by addition of the enzyme, and the increase in absorbance at 340 nm was measured for 5 minutes. Each data point was conducted in triplicate, and the fill experiment was repeated 4 times.

[6] = folinic acid 50 mg/kg intraperitoneally once daily for fourteen days
[7] = high dose methyltestosterone daily for two weeks, versus control
[8] = methyltestosterone 40 mg/kg by gavage once daily for fourteen days

SMILES: Nc1nc(=O)c2c([nH]1)NCC(CNc1ccc(C(=O)N[C@@H](CCC(=O)O)C(=O)O)cc1)N2C=O (mixture of isomers) [Folinic Acid, Folinic acid]
- Intracellular adenosine, Brain [1, 6]: 0.72 ± 0.09 nmols/mg protein
- Intracellular adenosine, Heart [1, 6]: 12.4 ± 2.1 nmols/mg protein
- Intracellular adenosine, Liver [1, 6]: 16.4 ± 2.4 nmols/mg protein
- effect on adenosine levels, all organs studied ([1]; folinic acid administered alone): increase
- effect of coadministration on steroid-mediated adenosine depletion ([1]; folinic acid coadministered with DHEA or methyltestosterone): completely abrogated

SMILES: CC(C)CCC[C@@H](C)[C@H]1CC[C@H]2[C@@H]3CC=C4C[C@@H](O)CC[C@]4(C)[C@H]3CC[C@]12C [CH, cholesterol]
- reversal of DHEA-induced growth inhibition (HT-29 SF cells [2]): no such effect
- prevention of DHEA-induced S phase depletion (HT-29 SF cells [3]; 48 hours): very little effect
- prevention of DHEA-induced S phase depletion (HT-29 SF cells [3]; 72 hours): no effect

SMILES: C[C@]12CC[C@H](O)CC1=CC[C@@H]1[C@@H]2CC[C@]2(C)C(=O)CC[C@@H]12 [DHEA, dehydroepiandrosterone]
- cell morphology (HT-29 SF cells [3]; DHEA exposure (data not shown)): rounded shape
- proportion of cells in S phase (HT-29 SF cells [3]; with increasing exposure time (48 and 72 hours)): progressively reduced
- inhibition of growth (HT-29 SF cells [4]; 0-200 μM DHEA, 0-72 hours): time- and dose-dependent inhibition of growth
- exposure time after which cell number was reduced compared to controls (HT-29 SF cells [4]; 12.5 μM DHEA): 72 h
- exposure time after which cell number was reduced compared to controls (HT-29 SF cells [4]; 25 μM DHEA): 48 h
- exposure time after which cell number was reduced compared to controls (HT-29 SF cells [4]; 50 μM DHEA): 48 h
- exposure time after which cell number was reduced compared to controls (HT-29 SF cells [4]; 200 μM DHEA): 24 h
- proportion of cells in S phase (HT-29 SF cells [5]; 200 μM DHEA, after 24 hours, continued through the treatment): decreased
- overall effect on cell cycle (HT-29 SF cells [5]; 25-200 μM DHEA, 24-72 hours): G1 block in HT-29 SF cells in a time- and dose-dependent manner
- G2M phase cells (HT-29 SF cells [5]; 25 or 50 μM DHEA, after 48 hours): transient increase
- percentage of cells in G1 phase (HT-29 SF cells [5]; 25 or 50 μM DHEA, after 72 hours): increased
- cell cycle distribution (HT-29 SF cells [5]; 25 or 50 μM DHEA, after the initial 24 hours): unchanged
- proportion of cells in S phase (HT-29 SF cells [5]; 25 or 50 μM DHEA, as time of exposure increased): progressively decreased
- inhibition of G6PDH enzyme activity (in words) (purified G6PDH; various doses in the μM range, compared to controls): inhibited the enzyme activity in a statistically significant manner
- inhibition of the activity of purified G6PDH compared to control (purified G6PDH; concentration not given): 72%

SMILES: C[C@@](O)(CCO)CC(=O)O [MVA, mevalonic acid]
- reversal of DHEA-induced growth inhibition (HT-29 SF cells [2]): partially overcome
- prevention of DHEA-induced S phase depletion (HT-29 SF cells [3]; 48 hours): partially prevented
- prevention of DHEA-induced S phase depletion (HT-29 SF cells [3]; 72 hours): not
- prevention of DHEA-induced rounded shape (HT-29 SF cells [3]; supplement added to culture medium (data not shown)): prevented

SMILES: C[C@]12CCC(=O)C=C1CC[C@@H]1[C@@H]2CC[C@@]2(C)[C@H]1CC[C@]2(C)O [Methyl-testosterone, methyltestosterone]
- effect on adenosine across organs ([1]; administered daily for two weeks): multi-organ depletion of adenosine
- depletion of adenosine in brain [1, 7]: 34%
- depletion of adenosine in heart [1, 7]: 22%
- Intracellular adenosine, Brain [1, 8]: 0.42 ± 0.06 nmols/mg protein
- Intracellular adenosine, Heart [1, 8]: 8.3 ± 1.0 nmols/mg protein
- Intracellular adenosine, Liver [1, 8]: 16.5 ± 0.9 nmols/mg protein
- Intracellular adenosine, Brain ([1]; methyltestosterone 120 mg/kg): 0.32 ± 0.03 nmols/mg protein
- Intracellular adenosine, Heart ([1]; methyltestosterone 120 mg/kg): 6.0 ± 0.4 nmols/mg protein
- Intracellular adenosine, Liver ([1]; methyltestosterone 120 mg/kg): 5.1 ± 0.5 nmols/mg protein

SMILES: CC(C)=CCC/C(C)=C/CC/C(C)=C/CC/C=C(\C)CC/C=C(\C)CCC=C(C)C [SQ, squalene]
- reversal of DHEA-induced growth inhibition (HT-29 SF cells [2]): no such effect
